Here are results for 13 compounds from ChEMBL document CHEMBL3822381, “Design, synthesis, and evaluation of Trolox-conjugated amyloid-β C-terminal peptides for therapeutic intervention in an in vitro model of Alzheimer's disease” (Bioorg Med Chem, 2016).

The structures appear in SMILES notation. Active and inactive are the calls of the source. No cut-off for these calls is given here. Residues, ends and D or L forms follow the SMILES beside them. *: point of attachment. Trolox = Cc1c(C)c2c(c(C)c1O)CCC(C)(C(=O)*)O2

Data set [1] addresses Amyloid-beta precursor protein (Homo sapiens) (UniProt P05067). Put plainly: Inhibition of amyloid beta (1 to 42) (unknown origin) aggregation at 80 uM by ThT-fluorescence assay relative to control.
The test system of data set [2] is SH-SY5Y. Put plainly: Neuroprotective activity against amyloid beta (1 to 42)-induced neurotoxicity in human SH-SY5Y cells assessed as increase in cell viability at 5 to 40 uM measured after 48 hrs by WST-8 assay. In kind it is functional, cell-based.
Data set [3] deals with SH-SY5Y. Kind of data set: Antioxidant activity in human SH-SY5Y cells assessed as inhibition of H2O2-induced ROS production preincubated for 1 day prior H2O2 treatment at 25 uM by DCFH-DA-based fluorescence analysis. The data set is classed as functional, cell-based.
In data set [4] the test system is SH-SY5Y. Kind of data set: Antioxidant activity against human SH-SY5Y cells assessed as amyloid beta (1 to 42)-induced ROS production preincubated for 1 day prior H2O2 treatment at 1.25 uM by DCFH-DA-based fluorescence analysis relative to control. The data set is classed as functional.
In data set [5] the test system is SH-SY5Y. Kind of data set: Neuroprotective activity against amyloid beta (1 to 42)-induced neurotoxicity in human SH-SY5Y cells assessed as increase in cell viability measured after 48 hrs by WST-8 assay. The data set is classed as functional, cell-based.
In data set [6] the test system is SH-SY5Y. Kind of data set: Neuroprotective activity against amyloid beta (1 to 42)-induced neurotoxicity in human SH-SY5Y cells assessed as increase in cell viability at 40 uM measured after 48 hrs by WST-8 assay. The data set is classed as functional, cell-based.
Data set [7] relates to SH-SY5Y. Put plainly: Cytotoxicity against human SH-SY5Y cells assessed as cell viability up to 40 uM measured after 48 hrs by WST-8 assay. The data set is classed as cell-based.
Data set [8] has as its system SH-SY5Y. Put plainly: Neuroprotective activity against amyloid beta (1 to 42)-induced neurotoxicity in human SH-SY5Y cells assessed as increase in cell viability at 20 uM measured after 48 hrs by WST-8 assay. The data set is classed as functional, cell-based.

Sequence of Amyloid-beta precursor protein (Homo sapiens) (P05067 whole entry): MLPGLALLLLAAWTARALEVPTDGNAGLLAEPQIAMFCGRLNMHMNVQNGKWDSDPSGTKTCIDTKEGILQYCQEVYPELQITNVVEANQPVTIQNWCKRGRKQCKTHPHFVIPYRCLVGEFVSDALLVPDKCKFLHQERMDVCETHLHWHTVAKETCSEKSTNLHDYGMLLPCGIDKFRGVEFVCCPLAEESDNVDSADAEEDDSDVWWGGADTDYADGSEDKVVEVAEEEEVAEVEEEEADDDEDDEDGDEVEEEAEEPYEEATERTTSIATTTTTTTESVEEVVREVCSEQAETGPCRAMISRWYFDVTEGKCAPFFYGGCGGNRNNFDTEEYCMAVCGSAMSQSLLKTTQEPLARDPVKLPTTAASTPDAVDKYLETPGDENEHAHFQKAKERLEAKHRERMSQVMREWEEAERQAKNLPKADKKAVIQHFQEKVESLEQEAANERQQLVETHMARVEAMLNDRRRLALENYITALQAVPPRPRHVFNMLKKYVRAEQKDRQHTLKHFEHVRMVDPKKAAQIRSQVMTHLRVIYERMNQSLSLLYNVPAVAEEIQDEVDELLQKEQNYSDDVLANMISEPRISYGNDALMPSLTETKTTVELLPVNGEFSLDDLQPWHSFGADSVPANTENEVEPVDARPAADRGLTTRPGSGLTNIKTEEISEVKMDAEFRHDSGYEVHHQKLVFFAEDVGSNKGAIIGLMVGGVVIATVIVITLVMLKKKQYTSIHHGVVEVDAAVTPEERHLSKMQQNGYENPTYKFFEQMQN

In turn, `CC[C@H](C)[C@H](NC(=O)[C@@H](NC(=O)C1(C)CCc2c(C)c(O)c(C)c(C)c2O1)C(C)C)C(=O)N[C@@H](C)C(=O)O` (stereo partly drawn) registered an inhibition in data set [1] of 2.8%.

In turn, `CC[C@H](C)[C@H](NC(=O)[C@@H](NC(=O)[C@@H](NC(=O)CNC(=O)CNC(=O)[C@@H](NC(=O)[C@H](CCSC)NC(=O)[C@H](CC(C)C)NC(=O)C1(C)CCc2c(C)c(O)c(C)c(C)c2O1)C(C)C)C(C)C)C(C)C)C(=O)N[C@@H](C)C(=O)O` (stereo partly drawn) showed an inhibition in data set [1] of 39.5%.

Consider `Cc1c(C)c2c(c(C)c1O)CCC(C)(C(=O)NCC(=O)N[C@H](C(=O)N[C@H](C(=O)O)C(C)C)C(C)C)O2` (stereo partly drawn), for which the inhibition entry in data set [1] was “inactive”.

For `Cc1c(C)c2c(c(C)c1O)CCC(C)(C(=O)N[C@H](C(=O)O)C(C)C)O2` (stereo partly drawn), in data set [1], the inhibition entry is “inactive”.

Compound `CC[C@H](C)[C@H](NC(=O)[C@@H](NC(=O)[C@@H](NC(=O)CNC(=O)C1(C)CCc2c(C)c(O)c(C)c(C)c2O1)C(C)C)C(C)C)C(=O)N[C@@H](C)C(=O)O` (stereo partly drawn) (Trolox-GVVIA-OH) had an inhibition in data set [1] of 4.7%.

For the compound `CC[C@H](C)[C@H](NC(=O)[C@@H](NC(=O)[C@@H](NC(=O)CNC(=O)C1(C)CCc2c(C)c(O)c(C)c(C)c2O1)C(C)C)C(C)C)C(=O)N[C@@H](C)C(=O)N[C@H](C(=O)O)[C@@H](C)O` (stereo partly drawn) (Trolox-GVVIAT-OH), in data set [1], the inhibition is 5%.

On to `CSCC[C@H](NC(=O)[C@H](CC(C)C)NC(=O)C1(C)CCc2c(C)c(O)c(C)c(C)c2O1)C(=O)N[C@H](C(=O)NCC(=O)NCC(=O)N[C@H](C(=O)N[C@H](C(=O)O)C(C)C)C(C)C)C(C)C` (stereo partly drawn) (Trolox-LMVGGVV-OH), for which the inhibition entry in data set [1] was “inactive”.

`CC[C@H](C)[C@H](NC(=O)[C@@H](NC(=O)[C@@H](NC(=O)CNC(=O)CNC(=O)[C@@H](NC(=O)[C@H](CCSC)NC(=O)[C@H](CC(C)C)NC(=O)C1(C)CCc2c(C)c(O)c(C)c(C)c2O1)C(C)C)C(C)C)C(C)C)C(=O)N[C@@H](C)C(=O)N[C@H](C(=O)O)[C@@H](C)O` (stereo partly drawn) (Trolox-LMVGGVVIAT-OH): in data set [1], the inhibition is 40.4%.

As to `Cc1c(C)c2c(c(C)c1O)CCC(C)(C(=O)N[C@H](C(=O)NCC(=O)NCC(=O)N[C@H](C(=O)N[C@H](C(=O)O)C(C)C)C(C)C)C(C)C)O2` (stereo partly drawn) (Trolox-VGGVV-OH), the outcome in the data set on SH-SY5Y [2] was inactive. The inhibition result in data set [1] is “inactive”.

As to `CC[C@H](C)[C@H](NC(=O)[C@@H](NC(=O)[C@@H](NC(=O)CNC(=O)CNC(=O)[C@@H](NC(=O)C1(C)CCc2c(C)c(O)c(C)c(C)c2O1)C(C)C)C(C)C)C(C)C)C(=O)N[C@@H](C)C(=O)O` (stereo partly drawn) (Trolox-VGGVVIA-OH), the inhibition result in the data set with SH-SY5Y [3] was “Active”. Further, the Activity in the data set with SH-SY5Y [4] is 37.6%; in the data set on SH-SY5Y [5], “Dose-dependent effect”; with SH-SY5Y [7], “Non-toxic”. The inhibition in data set [1] came to 17.7%. Also, in the data set with SH-SY5Y [6], the outcome was Active.

As for `CC[C@H](C)[C@H](NC(=O)[C@@H](NC(=O)[C@@H](NC(=O)CNC(=O)CNC(=O)[C@@H](NC(=O)C1(C)CCc2c(C)c(O)c(C)c(C)c2O1)C(C)C)C(C)C)C(C)C)C(=O)N[C@@H](C)C(=O)N[C@H](C(=O)O)[C@@H](C)O` (stereo partly drawn) (Trolox-VGGVVIAT-OH), the inhibition in data set [1] amounted to 17.3%. Further, the result with SH-SY5Y [6] was inactive. Besides, in the data set with SH-SY5Y [7], the Activity result is reported as “Non-toxic”. In addition, in the data set on SH-SY5Y [8], the outcome was Active.

Regarding `CC[C@H](C)[C@H](NC(=O)[C@@H](NC(=O)C1(C)CCc2c(C)c(O)c(C)c(C)c2O1)C(C)C)C(=O)N[C@@H](C)C(=O)N[C@H](C(=O)O)[C@@H](C)O` (stereo partly drawn) (Trolox-VIAT-OH), the inhibition in data set [1] was 6.6%.

For `Cc1c(C)c2c(c(C)c1O)CCC(C)(C(=O)O)O2` (stereo not drawn) [TROLOX], in the data set on SH-SY5Y [3], the inhibition result is “Active”. The Activity in the data set on SH-SY5Y [4] was determined as 23.6%.
